Among the data in patent publication EP3840748B1, “SUBSTITUTED IMIDAZOLES FOR THE INHIBITION OF TGF-BETA AND METHODS OF TREATMENT” (Clavius Pharmaceuticals, LLC, priority 2018, dated 2020) are IC50 values, retold here.

The target of assay [1] is T1, TGFBR1 (ALK5) (Homo sapiens, UniProt P36897).
T1 sequence (P36897 34-503): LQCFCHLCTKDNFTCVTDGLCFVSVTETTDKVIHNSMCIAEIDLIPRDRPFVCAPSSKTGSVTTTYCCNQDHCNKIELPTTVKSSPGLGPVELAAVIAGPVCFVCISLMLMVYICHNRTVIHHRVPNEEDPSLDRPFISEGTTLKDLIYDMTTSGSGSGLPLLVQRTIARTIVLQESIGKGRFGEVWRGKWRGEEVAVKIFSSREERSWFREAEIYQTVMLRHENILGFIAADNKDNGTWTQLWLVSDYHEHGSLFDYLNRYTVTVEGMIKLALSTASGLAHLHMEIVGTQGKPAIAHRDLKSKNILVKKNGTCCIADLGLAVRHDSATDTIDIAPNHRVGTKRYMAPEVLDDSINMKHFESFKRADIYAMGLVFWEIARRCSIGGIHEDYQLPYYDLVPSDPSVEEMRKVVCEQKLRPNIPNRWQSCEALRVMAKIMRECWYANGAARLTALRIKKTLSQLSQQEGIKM
The assay is described as follows: LanthaScreen Eu Kinase Binding Assay TGFBR1 (ALK5) (ThermoFisher SelectScreen). The note with it: ALK5 5 nM, Tracer #178 5 nM, Eu-anti-GST antibody 2 nM, 1 hour at room temperature, 1% DMSO; read-out: TβRI (ALK5) Binding IC50. The source says: (§1) Table 2, below, describes the results of assays carried out on some compounds provided by the present disclosure. Exemplified compounds are confirmed to inhibit ALK5 activity in enzyme and cellular assays in the following assay systems conducted by ThermoFisher in Madison, WI according to their commercially available protocols.
ThermoFisher SelectScreen™ Biochemical Kinase Profiling Service, LanthaScreen™Eu Kinase Binding Assay TGFBR1 (ALK5)
Exemplified compounds are screened in 1% DMSO (final concentration) by 3-fold serial dilutions from 10,000 nM to 0.316 nM or at single concentrations of 10,000, 1000 and 100 nM according to the following protocol. To low volume, white 384-well plates (Greiner Cat#784207) add 160 nL 100x compound in 100% DMSO, 3.84 uL kinase buffer (50 mM HEPES, pH 7.5, 0.01% BRIJ-35, 10 mM MgCl2, 1 mM EGTA), 8 uL 2x kinase/antibody mixture in kinase buffer (final ALK5 concentration of 5 nM; final Eu-anti-GST antibody concentration of 2 nM), 4 uL 4x Tracer #178 in kinase buffer (final concentration of 5 nM). Gently shake the plates for 30 seconds and incubate at room temperature for 1 hour before reading fluorescence on a plate reader. Percent inhibition is determined compared to DMSO only control (maximal ALK5 tracer binding) and sigmoidal dose response curve fit yielded IC50 values as indicated in Table 2.

Assay [2] deals with TGF-beta 1 stimulated SBE-bla HEK 293T. As to the kind of experiment: GeneBLAzer beta-lactamase (bla) reporter, TGF-beta 1 stimulated SBE-bla HEK 293T cell-based assay (ThermoFisher SelectScreen). The note with it: Homo sapiens; SBE-bla HEK 293T cells; 30 minutes pre-incubation with inhibitor; TGF-beta 1 0.03 nM, 5 hours; inhibitor 10,000nM to 0.316nM; read-out: Cells (SBE_HEK293T) IC50.
Text: as §1
ThermoFisher SelectScreen™ Cell-based Pathway Profiling Service GeneBLAzer Beta-lactamase (bla) Reporter Technology - TGF-beta 1 stimulated SBE-bla HEK 293T Cell-based Assay
SBE-bla HEK 293T cells are thawed and re-suspended in Assay Media (OPTI-MEM, 0.5% dialyzed FBS, 0.1 mM NEAA, 1 mM Sodium Pyruvate, 100 U/mL/100 µg/mL Pen/Strep) to a concentration of 625,000 cells/mL. 32 µL of cell suspension (20,000 cells) is added to each well of a 384-well Poly-D-Lysine assay plate. Cells in Assay Media are incubated for 16-24 hours in the plate at 37°C/5% CO2 in a humidified incubator. 4 µL of a 10X serial dilution of ALK5 inhibitors (10x = 100,000-3.16 nM) is added to appropriate wells of the plate and pre-incubated at 37°C/5% CO2 in a humidified incubator with cells for 30 minutes. Final concentration of inhibitor ranged from 10,000nM to 0.316nM. 4 µL of 10X TGF-beta 1 (final concentration of 0.03 nM) is added to wells containing the inhibitors. The plate is incubated for 5 hours at 37°C/5% CO2 in a humidified incubator. 8 µL of 1 µM Substrate Loading Solution is added to each well and the plate is incubated for 2 hours at room temperature before being read on a fluorescence plate reader. Percent inhibition is determined compared to DMSO only control (maximal TGF-beta 1 stimulation) and sigmoidal dose response curve fit yielded IC50 values as indicated in Table 2. TABLE 2: Biological activity assay results

In the case of `Cn1cnc2ccc(-c3c(-c4ccn(C5CC5)n4)nc4n3CCN4)cc2c1=O` [Compound 22, 6-{3-(1-Cyclopropyl-1H-pyrazol-3-yl)-1,4,6-triazabicyclo[3.3.0]octa-2,4-dien-2-yl}-3-methyl-3H-quinazolin-4-one], the IC50 turned out to be 0.0072 µM in assay [1] and 0.0274 µM in assay [2].
For `CC(C)n1ccc(-c2nc3sccn3c2-c2ccc3ncn(C)c(=O)c3c2)n1` [Compound 91, 6-(6-(1-Isopropyl-1H-pyrazol-3-yl)imidazo [2,1-b]thiazol-5-yl)-3-methylquinazolin-4(3H)-one], the IC50 came out at 0.022 µM in assay [1] and 1.1 µM in assay [2].
Consider `NC(=O)c1ncnc2ccc(-c3c(-c4ccn(C5CC5)n4)nc4sccn34)cc12` [Compound 96, 6-(6-(1-Cyclopropyl-1H-pyrazol-3-yl)imidazo[2,1-b]thiazol-5-yl)quinazoline-4-carboxamide], for which the IC50 in assay [1] came out at 0.0017 µM; in assay [2], 0.0249 µM.

As usually defined, the IC50 is the concentration needed to halve the response being measured.
